# Laboratory results from US20150343016A1, “CHEMICAL ENTITIES AND THERAPEUTIC USES THEREOF” (The Regents of the University of Colorado, a body corporate, priority 2010, published 2015).
# “Also recorded” adds a separate entry of the source.
# What was measured:
# [1] = tested on: grp (Chk1) mutant Drosophila larvae; assay: Drosophila larval survival to adulthood (eclosion), drug with and without IR, grp (Chk1) mutants; assay type: in vivo; details: for manner in which drug and radiation act together: grp (Chk1) mutants
# Method: To validate the identification of Bouvardin from the primary screen, the effect of this molecule on Drosophila larvae alone or in combination with radiation were assessed (FIG. 12). The screen was performed using irradiated mutant larvae. Hits from the screen were defined as those that reduced the survival of IRRADIATED larvae compared to the population of drugs being tested (approximately 80 molecules at a time) or compared to DMSO controls in the re-test. A hit could therefore act by enhancing the effect of radiation, or by simply killing larvae as a single agent, or both. To distinguish among these possibilities, hits from the screen were re-tested against larvae with and without irradiation.
# In FIG. 12 survival after each treatment is expressed as the fraction of animals that emerged (“eclosed”) as viable adults. The averages have been normalized to the average fraction eclosed in no IR/drug control for the respective genotype. Error bars extend beyond fractional survival of 1.0 simply because of normalization. (A-C) Fraction eclosed for WT and grp and p53 mutants at 16 uM of Bouvardin, with and without IR. The data are averages of 3-8 biological replicates per sample. Dotted line on each graph denotes expected ‘fraction eclosed’ if drug and IR act additively. IR doses were 4000R for WT and grp and 3000R for p53 because of the higher radiation sensitivity of the latter. (D) Fraction eclosed for Minute mutants and yw controls after exposure to 0 (−IR) and 2000R (+IR) of X-rays. N ranged from 86-207 per genotype per treatment, in 3 biological replicates per sample. *=p<0.01; **=<0.001. 100R=1Gy. Error bar=1 standard deviation.
# The activity of Bouvardin in Drosophila alone or in combination with ionizing radiation (IR) was assessed. Drug concentrations of 10-20 μM were used to approximate the conditions of the original screen. Third instar larvae were irradiated and cultured on medium containing drug. The survival of larvae was quantified 10 days later by measuring the rate of eclosion into adulthood. […]
# [2] = tested on: H157 tumor xenografts; assay: H157 tumor xenografts in athymic mice, Bouvardin with radiation; assay type: in vivo
# Excerpt: The effectiveness of Bouvardin, IR and the combination of the two was next assessed in H157 tumor xenografts (FIG. 17B). […] Similar results were obtained in a repeat experiment (not shown). […] Bouvardin enhances the effect of radiation in Drosophila mutant larvae, human cancer cells and tumor xenografts in mice. The choice of drug concentration would be critical.
# In FIG. 17 (A) Clonogenic assays were used to confirm the effects of Bouvardin in combination with radiation in H157 cells. Cells were plated in 6 well plates at 1,000 cells per well. 24 hours later, various doses of (1 nM, 5 nM and 10 nM) of Bouvardin were added with media alone as a control. 24 hours after the addition of Bouvardin, the cells were irradiated at 0, 2, 4 and 6 Gy. Colonies were allowed to form for 2 weeks and then counted. The results are shown as a percentage of control (no drug, no IR). Error bar=±1SEM. (B) The effect of Bouvardin (Bvd) and radiation on H157 xenografts in athymic mice. Bouvardin treatment began when tumors had reached approximately 200 mm3. Bouvardin was administered intraperitonealy twice a week, and radiation was administered 24 hr after each drug administration Animals in control and drug-only groups had tumors that were too large and had to be sacrificed on day 26. Treatment continued for the other two groups for one more week. The difference in tumor volume between combination-treated group and radiation only group was statistically significant at day 30 (p=0.0387 on day 30; upaired two tailed t-test). The difference in tumor volume between combination-treated group and radiation only group remains on day 33 but is less significant (p=0.0967; upaired two tailed t-test). N=10 per group. The data points indicate mean tumor volumes ±1SEM.
# Six to 8-week-old female nude athymic mice were purchased from Harlan Laboratories and housed in a pathogen-free facility approved by the American Association for the Accrediation of Laboratory Animal Care and met all current regulations and standards of the U.S. Department of Agriculture, the U.S. Department of Health and Human Services and the National Institutes of Health Animal procedures were carried out in accordance with a protocol approved by the Institutional Animal Care and Use Committee of the University of Colorado. Cancer cells were grown to 80% confluence and harvested by trypsinization. Trypsin was neutralized with complete medium containing FBS. […] Mice were treated for 3 weeks, and tumor growth was measured until volume exceeded 2 cm3, when animals were euthanized. Tumor volume was measured on Tuesdays and Fridays. Tumor volume was calculated using the formula V=a2×b/2, where a and b are the smallest and largest tumor diameters, respectively, as determined using calipers.
# [3] = LD50 in mice; details: mouse, in vivo
structure (smiles),measurement,setting,value
"COc1ccc(C[C@H]2C(=O)N[C@H](C)C(=O)N(C)[C@@H]3C(=O)N(C)[C@@H](Cc4ccc(O)c(c4)Oc4ccc(cc4)[C@H]3O)C(=O)N[C@@H](C)C(=O)N[C@H](C)C(=O)N2C)cc1 (stereo in doubt) [Bouvardin, bouvardin]",manner in which drug and radiation act together,[1],synergistic manner
same,manner in which drug and radiation act together,[1]; listed as bouvardin,appear to synergize
same,effect on the killing effect of radiation (+IR versus +both),"[1]; grp mutants, drug 10-20 μM",increased the killing effect of radiation in a statistically significant manner
same,"tumor control, drug with radiation versus radiation alone","[2]; 0.2 mg/kg + radiation 24 hr after each drug administration, p=0.0387 on day 30, p=0.0967 on day 33",improved control of tumor volume in a statistically significant manner; also recorded: enhanced the effect of IR
same,"tumor control, drug alone",[2]; 0.2 mg/kg intraperitonealy twice a week,had little effect on its own
same,"tumor control, drug alone",[2]; 0.4 mg/kg,shows tumor control; also recorded: had effect on its own
same,"tumor control, drug with radiation versus radiation alone",[2]; 0.4 mg/kg + radiation,did not enhance the effect of radiation; also recorded: did not enhance the effect of IR
same,LD50,[3],12.4 mg/kg
